Experimental findings from patent US20260193283A1, “CARBOXAMIDE DERIVATIVE HAVING RSK INHIBITORY EFFECT, PHARMACEUTICAL COMPOSITION COMPRISING SAME, AND USE THEREOF” (KINOTECK THERAPEUTICS CO., LTD., priority 2022, published 2026) are described below.

The target in data set [1] is T1, RSK2 kinase (Homo sapiens, UniProt P51812).
T1 construct: purchased Carna 01-150
Description: HTRF KinEASE-STK assay of RSK2 kinase inhibition in vitro. The class given is biochemical. As to conditions: 0.18 nM RSK2 recombinase, 10 μM ATP, read-out: IC50, in vitro inhibitory activity on RSK2 kinase. The protocol:
The inhibitory effect of small molecule compounds on RSK2 kinase was detected using HTRF KinEASE-STK assay. […] Specifically, firstly, 2.5×RSK2 recombinase and 5×inhibitor were added to a buffer system in a 384 well plate, and incubated at room temperature for 10 minutes, negative control wells without enzyme and positive control wells without compounds were set at the same time, then, 2.5×peptide substrate and ATP were added, and then the reaction began.

Data set [2] in a line: Pharmacokinetic study in mice. As to conditions: mouse; male ICR mice, oral gavage administration, 10 mg/kg, plasma. The class given is in vivo. As to the method: Pharmacokinetic experiments in mice were conducted using male ICR mice weighed 20-25 g, provided by the Experimental Animal Management Department of Shanghai Family Planning Scientific Research Institute. 3 mice were taken and fasted overnight, and then administered orally by gavage (10 mg/kg). Blood samples were collected before administration, at 15 and 30 minutes as well as 1, 2, 4, 8, and 24 hours after administration; in addition, another 3 mice were taken and administered intravenously (1 mg/kg), and blood samples were collected before administration, at 15 and 30 minutes as well as 1, 2, 4, 8, and 24 hours after administration. blood sample was centrifuged at 6800 g, 2-8° C. for 6 minutes, and then the plasma was collected and stored at −80° C. Plasma at each time point were added 10-20 times the amount of methanol or acetonitrile solution containing internal standard, and mixed by vortex for 1 minute, centrifuged at 18000 rpm at 4° C. for 10 minutes, and then the supernatant was taken to analyze by LC-MS/MS directly. The main pharmacokinetic parameters were analyzed using WinNonlin 7.0 software for non compartmental model analysis.

Data set [3] has as its system MDA-MB-453 cells. Description: Triple negative breast cancer cell proliferation inhibition (CCK-8, 5 days). In kind it is cell-based. As to conditions: Homo sapiens, 120 h, 5 days incubation, read-out: IC50, proliferation inhibitory activity on MDA-MB-453. As to the method:
The compound or vehicle control (DMSO) was diluted in culture medium in a 96 well plate, with the final concentrations of 50, 25, 12.5, 6.25, 3.13, 1.56, 0.78, 0.39, 0.2, and 0.1 μM. 1×10^3 MDA-MB-453 cells were inoculated into each well, and the plate was incubated in the incubator for 5 days. After the incubation period, cell survival was quantified using Cell Counting Kit-8 (CCK-8) reagent. In short, the cells were incubated with CCK8 for 2-4 hours, and then the absorbance at 450 nm and 650 nm was measured. CCK-8 is WST-8 (chemical name: 2-(2-methoxy-4-nitrophenyl)-3-(4-nitrophenyl)-5-(2,4-disulfonate benzene)-2H tetrazole monosodium salt), which is reduced to a highly water-soluble yellow formazan dye by dehydrogenases in cells under the action of electron carrier 1-methoxy-5-methylphenazinium sulfate dimethyl ester (1-Methoxy PMS). The number of generated formazan dye substances is directly proportional to the number of live cells, so this characteristic can be used to calculate the survival percentage, as shown in the following equation:
[formula] • As: experimental well (the treatment wells containing cells, different concentrations of drug) • Ab: solvent control well (solvent treatment wells containing cells, 0 concentration of drug) • Ac: blank well (well without cells and drugs)
The cell survival rate data and corresponding compound concentrations were input into GraphPad Prism software to fit and calculate IC50 values.

T1 sequence (P51812 whole entry): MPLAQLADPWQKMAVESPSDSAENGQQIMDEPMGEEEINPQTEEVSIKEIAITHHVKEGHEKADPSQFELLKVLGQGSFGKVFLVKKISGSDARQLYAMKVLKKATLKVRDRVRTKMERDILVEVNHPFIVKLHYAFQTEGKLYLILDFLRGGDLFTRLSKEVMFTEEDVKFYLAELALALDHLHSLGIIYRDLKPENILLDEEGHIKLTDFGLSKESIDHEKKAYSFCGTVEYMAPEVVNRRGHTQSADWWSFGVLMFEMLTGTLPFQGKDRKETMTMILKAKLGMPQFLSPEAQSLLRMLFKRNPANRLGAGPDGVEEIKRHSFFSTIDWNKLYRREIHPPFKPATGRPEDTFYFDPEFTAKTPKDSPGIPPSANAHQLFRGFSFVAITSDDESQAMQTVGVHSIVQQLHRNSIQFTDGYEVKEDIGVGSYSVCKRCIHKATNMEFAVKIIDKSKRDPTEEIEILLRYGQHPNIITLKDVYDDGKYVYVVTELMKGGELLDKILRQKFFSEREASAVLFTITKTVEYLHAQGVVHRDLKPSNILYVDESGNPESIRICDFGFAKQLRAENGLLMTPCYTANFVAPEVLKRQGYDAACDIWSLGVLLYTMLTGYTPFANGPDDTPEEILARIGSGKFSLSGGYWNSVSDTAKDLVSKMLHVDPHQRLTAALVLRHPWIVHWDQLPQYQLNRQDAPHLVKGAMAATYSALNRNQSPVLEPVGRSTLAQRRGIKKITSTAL

For `C[C@@H]1CNC(=O)c2cc3ccc(C(=O)Nc4cnn(Cc5ccc(C6(O)CC6)nc5)c4)nc3n21` [Compound 10], the IC50 in data set [1] amounted to 0.11 nM. For `[2H]C([2H])([2H])C(O)(c1ccc(Cn2cc(NC(=O)c3ccc4cc5n(c4n3)[C@H](C)CNC5=O)cn2)cn1)C([2H])([2H])[2H]` [Compound 17], the IC50 in data set [1] was determined as 0.22 nM. In the case of `Cc1cc(NC(=O)c2ccc3cc4n(c3n2)[C@H](C)CNC4=O)nn1Cc1ccc(C(C)(C)O)nc1` [Compound 9], the IC50 in data set [1] was 43 nM. Same read-out and setting: then `C[C@@H]1CNC(=O)c2cc3ccc(C(=O)Nc4cnn(Cc5ccc(C(C)(C)O)nc5)c4)c(F)c3n21` [Compound 13], with 5.43 nM. With `C[C@@H]1CNC(=O)c2cc3ccc(C(=O)Nc4cnn(Cc5cnc(C(C)(C)O)c(F)c5)c4)nc3n21` [Compound 15, (R)—N-(1-((5-fluoro-6-(2-hydroxyprop-2-yl)pyridin-3-yl)methyl)-1H-pyrazol-4-yl)-9-methyl-6-oxo-6,7,8,9-tetrahydropyridino [3, 2′: 4,5]pyrrolo [1,2-a]pyrazine-2-carboxamide], the IC50 in data set [1] came out at 0.08 nM. In data set [2], the AUC(0-t) amounted to 99300 ng·h/mL, the highest level (Cmax) was 22800 ng/mL, the time to peak (Tmax) worked out at 30 min and the half-life was 131 min. The IC50 in data set [3] was found to be 2480 nM. `C[C@@H]1CNC(=O)c2cc3ccc(C(=O)Nc4cnn(Cc5ccc(C6(O)CCC6)nc5)c4)nc3n21` [Compound 11]: in data set [1], the IC50 is 0.29 nM. `C[C@@H]1CNC(=O)c2cc3ccc(C(=O)Nc4cnn(Cc5ccc(C(C)(C)O)nc5)c4)nc3n21` [Compound 5]: the IC50 in data set [1] amounted to 0.35 nM. Further, in data set [2], the AUC(0-t) is 35100 ng·h/mL, the highest level (Cmax) was 17900 ng/mL, the time to peak (Tmax) is 15 min and the half-life is 94.2 min. Further, in data set [3], the IC50 worked out at 2040 nM. In the case of `C[C@@H]1CNC(=O)c2cc3cc(F)c(NC(=O)c4cnn(Cc5ccc(N)cc5)c4)nc3n21` [Compound 6, (R)-1-(4-aminobenzyl)-N-(3-fluoro-9-methyl-6-oxo-6,7,8,9-tetrahydropyridino [3′, 2″: 4,5]pyrrolo [1,2-a]pyrazin-2-yl)-1H-pyrazole-4-carboxamide], the IC50 in data set [1] came out at 175 nM. On to `C[C@@H]1NC(=O)c2cc3ccc(C(=O)Nc4cnn(Cc5cnc(C(C)(C)O)c(F)c5)c4)nc3n2[C@@H]1C` [Compound 16, (8S, 9R)—N-(1-((5-fluoro-6-(2-hydroxyprop-2-yl)pyridin-3-yl)methyl)-1H-pyrazol-4-yl)-8,9-dimethyl-6-oxo-6,7,8,9-tetrahydropyridino [3′, 2′: 4,5]pyrrolo [1,2-a]pyrazine-2-carboxamide], for which the IC50 in data set [1] was 0.08 nM.

`C[C@H]1Cn2c(cc3ccc(C(=O)Nc4cnn(Cc5ccc(C(C)(C)O)nc5)c4)nc32)C(=O)N1` [Compound 14]: in data set [1], the IC50 stood at 1.58 nM. Take `C[C@@H]1CNC(=O)c2cc3ccc(C(=O)Nc4cnn(Cc5ccnc(C(C)(C)O)c5)c4)nc3n21` [Compound 4]: the IC50 in data set [1] is 0.42 nM; in data set [3] it was 2660 nM. Regarding `C[C@@H]1NC(=O)c2cc3ccc(C(=O)Nc4cnn(Cc5ccc(C(C)(C)O)nc5)c4)nc3n2[C@@H]1C` [Compound 12], the IC50 in data set [1] worked out at 0.43 nM. On to `CC(c1ccc(C(C)(C)O)nc1)n1cc(NC(=O)c2ccc3cc4n(c3n2)[C@H](C)CNC4=O)cn1` (stereo partly drawn) [Compound 8, (9R)—N-(1-(1-(6-(2-hydroxyprop-2-yl)pyridin-3-yl)ethyl)-1H-pyrazol-4-yl)-9-methyl-6-oxo-6,7,8,9-tetrahydropyridino [3′, 2′: 4,5]pyrrolo [1,2-a]pyrazine-2-carboxamide], for which the IC50 in data set [1] stood at 0.8 nM; in data set [3], 5610 nM. Consider `C[C@@H]1CNC(=O)c2cc3ccc(C(=O)Nc4cnn(Cc5ccc(S(C)(=N)=O)cc5)c4)nc3n21` (some centres unmarked) [Compound 3], for which the IC50 in data set [1] was 0.24 nM.

In the case of `C[C@@H]1CNC(=O)c2cc3ccc(C(=O)Nc4cnn(Cc5ccc(N)cc5)c4)c(F)c3n21` [Compound 7, (R)—N-(1-(4-aminobenzyl)-1H-pyrazol-4-yl)-6-fluoro-4-methyl-1-oxo-1,2,3,4-tetrahydropyrazino [1,2-a]indole-7-carboxamide], the IC50 in data set [1] worked out at 99.9 nM. Turning to `C[C@@H]1CNC(=O)c2cc3ccc(C(=O)Nc4cnn(Cc5ccc(P(C)(C)=O)cc5)c4)nc3n21` [Compound 1, (R)—N-(1-(4-(dimethylphosphoryl)benzyl)-1H-pyrazol-4-yl)-9-methyl-6-oxo-6,7,8,9-tetrahydropyridino[3′, 2′: 4,5]pyrrolo [1,2-a]pyrazine-2-carboxamide], the IC50 in data set [1] was determined as 0.44 nM. With `C[C@@H]1CNC(=O)c2cc3ccc(C(=O)Nc4cnn(Cc5ccc(N)cc5)c4)nc3n21.Cl` [Control Compound II, reference compound], the IC50 in data set [1] was found to be 1.08 nM. In addition, in data set [2], the exposure AUC(0-t) came out at 4610 ng·h/mL, the Cmax is 3420 ng/mL, the Tmax was 25.2 min and the half-life was 49.2 min. Moreover, the IC50 in data set [3] is 4600 nM. For the compound `C[C@@H]1CNC(=O)c2cc3ccc(C(=O)Nc4cnn(Cc5ccc(N=S(C)(C)=O)cc5)c4)nc3n21` [Compound 2, (R)—N-(1-(4-((dimethyl (oxo)-λ^6-sulfanylidene)amino)benzyl)-1H-pyrazol-4-yl)-9-methyl-6-oxo-6,7,8,9-tetrahydropyridino [3′,2′: 4,5]pyrrolo [1,2-a]pyrazine-2-carboxamide], the IC50 in data set [1] stood at 0.31 nM.

Broadly, the AUC(0-t) is the area under the concentration-time curve up to a stated or last time point. By Cmax is commonly meant the maximum level reached in the sampled fluid or tissue. In general, Tmax refers to the time at which the peak concentration occurs. The term half-life denotes how long it takes for the measured level to halve. A lower half-life goes with fast loss.
